Data as given in ChEMBL document CHEMBL1159231, “Cyathocaline, an Azafluorenone Alkaloid from Cyathocalyx zeylanica” (J Nat Prod, 1995).
Activity calls are given as the source filed them. The rule behind the calls is not given here.

Assays:
Saccharomyces cerevisiae [1] = test: DNA damaging activity against DNA repair rad6 gene-deficient yeast RS 167N mutant; assay type: functional, organism-based
Saccharomyces cerevisiae [2] = test: DNA damaging activity against wild type DNA repair-proficient yeast RS 188N (RAD+) assessed as drug level required to produce 12 mm zone of inhibition; assay type: functional
Saccharomyces cerevisiae [3] = test: DNA damaging activity against DNA repair-deficient yeast RS 321N mutant assessed as drug level required to produce 12 mm zone of inhibition; assay type: functional
Saccharomyces cerevisiae [4] = test: DNA damaging activity against DNA repair rad 52Y gene-deficient yeast RS 322YK mutant assessed as drug level required to produce 12 mm zone of inhibition; assay type: functional
A549 = test: Cytotoxicity against human A549 cells; assay type: functional, cell-based

For `COc1c(O)cc2c(c1O)-c1nccc(C)c1C2=O` [CYATHOCALINE], the Activity (Saccharomyces cerevisiae [1]) was “inactive”, the IC12 (Saccharomyces cerevisiae [2]) was > 400 µg/mL and the IC12 (Saccharomyces cerevisiae [3]) was 87 µg/mL. The IC12 (Saccharomyces cerevisiae [4]) was 90 µg/mL and the IC50 (A549) was 8.5 µM.
